Test results as given in ChEMBL document CHEMBL1201862, “PubChem BioAssay data set” (2004).
Activity calls are given as the source filed them.

How the values were obtained:
[1] = target: Dual specificity tyrosine-phosphorylation-regulated kinase 1A (Rattus norvegicus, UniProt Q63470); format: biochemical, Homo sapiens
[2] = tested on: P388/ADR; test: cells; format: functional; conditions: Mus musculus
[3] = tested on: SN12K1; test: cells; format: functional; conditions: Homo sapiens
[4] = tested on: P388; test: cells; format: functional; conditions: Mus musculus
[5] = intracellular Trypanosoma cruzi inhibitors in host cells – cell-based, plate reader, cherry-pick samples, set 3, dose response (AID 651818); format: functional;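 also: compounds incubated with infected cells for about four days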
[6] = NIH-3T3 fibroblast cytotoxicity, dose response, cytotoxicity control, cell-based, fluorescence, Alamar Blue, secondary assay (AID 2327); format: functional;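 also: NIH-3T3 mouse fibroblasts cultured with fluconazole at 8 µg/mL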
[7] = tested on: BJ; test: cytotoxicity toward BJ-TERT fibroblasts, dose response, cell-based, RAS-independent, luminescence (AID 1933); format: functional; conditions: Homo sapiens
[8] = cells; format: functional, cell-based
[9] = tested on: BJ; test: cells; format: functional, cell-based; conditions: Homo sapiens
[10] = C. albicans growth with fluconazole, confirmation, fluorescence, retest (AID 2467); format: functional, cell-based
[11] = cells; format: functional, cell-based; remark: listed apart in the source
[12] = tested on: BJ; test: cytotoxicity toward BJ-TERT-LT-ST fibroblasts, dose response, cell-based, RAS-independent, luminescence (AID 1935); format: functional; conditions: Homo sapiens;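 also: BJ fibroblasts immortalized with TERT plus LT and ST oncogenes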
[13] = cytotoxicity toward DRD oncogenic fibroblasts, dose response, cell-based, non-viral oncogenic, luminescence (AID 1934); format: functional; conditions: Homo sapiens
[14] = cytotoxicity in HEK-293T cells, dose response, cytotoxicity control for TCR NF-kB inhibitor project, luminescence, T-cell screen hits (AID 489026); format: functional, cell-based;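 also: cells exposed to compound about 14 hours before the viability readout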
[15] = target: Nonstructural protein 1 (Influenza A virus, UniProt Q194T2); format: functional, Influenza A virus (A/California/07/2009(H1N1))
Sequence of Nonstructural protein 1 (Q194T2 whole entry): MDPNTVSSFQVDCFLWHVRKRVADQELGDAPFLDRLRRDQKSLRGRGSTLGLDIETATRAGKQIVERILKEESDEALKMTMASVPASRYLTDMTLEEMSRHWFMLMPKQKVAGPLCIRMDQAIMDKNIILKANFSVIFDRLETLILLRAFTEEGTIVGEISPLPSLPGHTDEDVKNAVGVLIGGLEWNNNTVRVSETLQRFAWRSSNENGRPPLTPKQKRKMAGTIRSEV

[16] = tested on: INS1; test: beta cell apoptosis inhibitors, cytokine rescue, dose response, luminescence, retest (AID 449756); format: functional, cell-based; conditions: Rattus norvegicus;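 also: cell death triggered by IL-1 beta plus TNF-alpha plus IFN-gamma mixture; protective hits raise ATP signal compared with cytokine alone wells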
[17] = target: T1, Rac GTPase-activating protein 1 (Homo sapiens, UniProt Q9H0H5); test: MgcRacGAP GTPase-activating activity inhibitors, confirmation, biochemical, ADP Hunter fluorescence, primary and confirmatory (AID 624330); format: functional
T1 sequence (Q9H0H5 whole entry): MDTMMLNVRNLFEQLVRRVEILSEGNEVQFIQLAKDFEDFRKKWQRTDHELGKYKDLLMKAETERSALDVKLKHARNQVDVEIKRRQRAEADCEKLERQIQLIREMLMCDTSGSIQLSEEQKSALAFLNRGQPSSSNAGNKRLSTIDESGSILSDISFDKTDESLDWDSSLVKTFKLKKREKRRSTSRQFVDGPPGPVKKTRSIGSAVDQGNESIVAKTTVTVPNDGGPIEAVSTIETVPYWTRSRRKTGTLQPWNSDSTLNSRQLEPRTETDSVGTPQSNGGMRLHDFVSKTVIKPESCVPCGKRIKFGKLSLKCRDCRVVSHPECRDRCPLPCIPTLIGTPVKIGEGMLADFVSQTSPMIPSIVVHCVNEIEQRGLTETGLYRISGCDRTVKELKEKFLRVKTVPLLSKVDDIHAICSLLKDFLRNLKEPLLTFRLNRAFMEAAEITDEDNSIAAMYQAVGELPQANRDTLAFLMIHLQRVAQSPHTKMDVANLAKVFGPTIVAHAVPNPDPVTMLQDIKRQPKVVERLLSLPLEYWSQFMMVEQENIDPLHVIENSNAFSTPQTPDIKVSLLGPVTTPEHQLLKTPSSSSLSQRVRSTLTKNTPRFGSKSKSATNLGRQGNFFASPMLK

[18] = target: T2, Fatty acid synthase (Homo sapiens, UniProt P49327); test: FAS thioesterase domain inhibitors, dose response, biochemical, endpoint fluorescence intensity, uHTS hits (AID 624327); format: functional;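 also: fluorescence from hydrolysis of an O-methyl fluorescein acyl ester substrate by the enzyme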
T2 sequence (P49327 whole entry, the tested form may be a part): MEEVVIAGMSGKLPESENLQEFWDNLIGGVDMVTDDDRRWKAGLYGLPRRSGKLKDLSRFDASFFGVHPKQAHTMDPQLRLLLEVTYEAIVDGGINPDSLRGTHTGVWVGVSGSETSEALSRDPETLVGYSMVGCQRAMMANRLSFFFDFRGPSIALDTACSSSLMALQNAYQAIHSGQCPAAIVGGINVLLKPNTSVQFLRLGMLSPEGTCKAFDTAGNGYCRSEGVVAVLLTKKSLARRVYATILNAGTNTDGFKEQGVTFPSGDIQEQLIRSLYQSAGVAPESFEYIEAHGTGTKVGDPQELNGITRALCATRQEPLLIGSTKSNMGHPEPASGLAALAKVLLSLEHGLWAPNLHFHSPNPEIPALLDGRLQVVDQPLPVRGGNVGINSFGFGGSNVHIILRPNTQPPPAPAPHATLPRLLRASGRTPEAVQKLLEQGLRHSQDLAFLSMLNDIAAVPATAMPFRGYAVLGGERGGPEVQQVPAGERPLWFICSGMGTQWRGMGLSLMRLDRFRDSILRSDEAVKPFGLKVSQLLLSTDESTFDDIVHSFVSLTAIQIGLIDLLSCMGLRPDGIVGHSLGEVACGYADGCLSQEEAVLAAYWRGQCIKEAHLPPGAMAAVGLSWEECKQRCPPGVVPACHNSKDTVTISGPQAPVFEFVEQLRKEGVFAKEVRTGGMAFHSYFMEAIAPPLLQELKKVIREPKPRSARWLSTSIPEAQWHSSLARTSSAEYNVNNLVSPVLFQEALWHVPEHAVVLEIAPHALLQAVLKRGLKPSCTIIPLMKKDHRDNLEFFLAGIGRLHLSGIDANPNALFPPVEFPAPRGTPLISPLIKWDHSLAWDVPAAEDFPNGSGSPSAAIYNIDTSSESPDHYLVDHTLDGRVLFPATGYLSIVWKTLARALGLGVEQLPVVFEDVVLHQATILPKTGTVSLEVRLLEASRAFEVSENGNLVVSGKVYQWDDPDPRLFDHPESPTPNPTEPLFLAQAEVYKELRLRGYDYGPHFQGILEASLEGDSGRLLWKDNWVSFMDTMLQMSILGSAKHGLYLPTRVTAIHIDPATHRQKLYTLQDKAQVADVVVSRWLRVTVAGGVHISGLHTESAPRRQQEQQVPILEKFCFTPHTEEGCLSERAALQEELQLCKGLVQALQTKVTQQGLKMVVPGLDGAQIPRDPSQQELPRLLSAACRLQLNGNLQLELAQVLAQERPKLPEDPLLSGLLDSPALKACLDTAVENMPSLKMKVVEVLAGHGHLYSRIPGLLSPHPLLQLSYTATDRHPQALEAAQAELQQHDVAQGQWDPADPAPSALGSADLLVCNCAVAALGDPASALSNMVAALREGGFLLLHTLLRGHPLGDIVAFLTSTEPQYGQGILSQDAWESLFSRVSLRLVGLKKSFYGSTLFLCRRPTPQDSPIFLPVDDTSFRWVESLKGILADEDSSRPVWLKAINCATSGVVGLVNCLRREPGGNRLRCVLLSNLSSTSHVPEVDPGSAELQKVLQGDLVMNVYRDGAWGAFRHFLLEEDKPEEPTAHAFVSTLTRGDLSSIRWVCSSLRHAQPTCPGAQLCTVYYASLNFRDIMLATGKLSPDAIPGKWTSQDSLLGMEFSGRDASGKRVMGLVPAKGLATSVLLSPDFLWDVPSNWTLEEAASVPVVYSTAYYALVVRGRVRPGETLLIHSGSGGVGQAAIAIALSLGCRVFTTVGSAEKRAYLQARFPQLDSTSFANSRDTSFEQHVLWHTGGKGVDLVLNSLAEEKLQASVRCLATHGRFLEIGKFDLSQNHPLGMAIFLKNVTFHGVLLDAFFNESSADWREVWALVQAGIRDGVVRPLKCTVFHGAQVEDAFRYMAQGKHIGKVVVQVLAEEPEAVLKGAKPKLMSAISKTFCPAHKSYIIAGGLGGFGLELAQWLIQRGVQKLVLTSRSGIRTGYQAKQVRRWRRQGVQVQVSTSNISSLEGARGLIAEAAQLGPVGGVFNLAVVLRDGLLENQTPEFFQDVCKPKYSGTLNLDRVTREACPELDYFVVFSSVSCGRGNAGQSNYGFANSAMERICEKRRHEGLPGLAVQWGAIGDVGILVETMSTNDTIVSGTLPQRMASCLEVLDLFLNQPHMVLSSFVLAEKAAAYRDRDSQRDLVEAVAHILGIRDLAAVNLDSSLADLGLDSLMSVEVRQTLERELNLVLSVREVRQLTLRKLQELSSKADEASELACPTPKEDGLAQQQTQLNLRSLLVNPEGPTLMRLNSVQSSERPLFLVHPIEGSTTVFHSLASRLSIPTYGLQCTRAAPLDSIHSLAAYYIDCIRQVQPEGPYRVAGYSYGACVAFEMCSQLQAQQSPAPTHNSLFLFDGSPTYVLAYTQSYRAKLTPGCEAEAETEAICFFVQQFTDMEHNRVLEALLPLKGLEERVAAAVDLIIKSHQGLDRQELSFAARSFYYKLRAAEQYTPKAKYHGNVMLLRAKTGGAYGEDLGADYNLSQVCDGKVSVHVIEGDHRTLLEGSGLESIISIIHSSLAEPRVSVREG

[19] = target: T2, Fatty acid synthase; test: FAS thioesterase domain inhibitors, dose response, biochemical, kinetic fluorescence intensity (AID 624326); format: functional;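 also: rate of fluorescence rise from hydrolysis of a fluorogenic O-methyl fluorescein ester substrate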
[20] = tested on: Vero; test: cells; format: functional; conditions: Chlorocebus sabaeus
[21] = tested on: Streptococcus sp. 'group A'; test: growth inhibition of control SK(-) GAS strain, dose response, counter-screen for streptokinase expression inhibitor project, luminescence, kanamycin, BacTiterGlo, confirmation (AID 1900); format: functional, organism-based
[22] = target: T3, Streptokinase A (Streptococcus pyogenes serotype M1, UniProt P10520); test: S. pyogenes streptokinase expression inhibitors, potency, dose response, plasminogen activation absorbance, OD405 (AID 1914); format: functional, Streptococcus pyogenes M1 GAS;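 also: secreted streptokinase activity via plasminogen activation per viability signal from cell pellet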
T3 sequence (P10520 whole entry): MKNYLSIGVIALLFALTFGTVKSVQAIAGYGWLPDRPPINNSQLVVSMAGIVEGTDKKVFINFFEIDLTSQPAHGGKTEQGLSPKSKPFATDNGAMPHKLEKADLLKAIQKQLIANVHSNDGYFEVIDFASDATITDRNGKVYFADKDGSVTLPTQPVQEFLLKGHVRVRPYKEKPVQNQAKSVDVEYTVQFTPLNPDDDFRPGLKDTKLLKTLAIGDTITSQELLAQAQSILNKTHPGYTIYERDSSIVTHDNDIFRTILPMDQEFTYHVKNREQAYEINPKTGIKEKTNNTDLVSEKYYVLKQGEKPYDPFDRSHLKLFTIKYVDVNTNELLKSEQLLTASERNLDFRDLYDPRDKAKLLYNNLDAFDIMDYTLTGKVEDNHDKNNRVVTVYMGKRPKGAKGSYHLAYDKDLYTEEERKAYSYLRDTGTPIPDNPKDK

[23] = tested on: Streptococcus; test: Group A Streptococcus viability loss, dose response, counter-screen for streptokinase expression inhibitor project, luminescence, BacTiterGlo (AID 1915); format: functional, organism-based;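 also: potency for reduction of bacterial viability or growth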
[24] = A cytotoxicity screen of small molecule inhibitors of the PhoP region in Salmonella typhi identified in the primary screen. [Related pubchem assays: 1850, 1864, 1985 ]; format: functional
[25] = target: Cytochrome P450 2D6 (Homo sapiens, UniProt P10635);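 also: CYP2D6 member of a cytochrome P450 panel assay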
Sequence of Cytochrome P450 2D6 (P10635 whole entry): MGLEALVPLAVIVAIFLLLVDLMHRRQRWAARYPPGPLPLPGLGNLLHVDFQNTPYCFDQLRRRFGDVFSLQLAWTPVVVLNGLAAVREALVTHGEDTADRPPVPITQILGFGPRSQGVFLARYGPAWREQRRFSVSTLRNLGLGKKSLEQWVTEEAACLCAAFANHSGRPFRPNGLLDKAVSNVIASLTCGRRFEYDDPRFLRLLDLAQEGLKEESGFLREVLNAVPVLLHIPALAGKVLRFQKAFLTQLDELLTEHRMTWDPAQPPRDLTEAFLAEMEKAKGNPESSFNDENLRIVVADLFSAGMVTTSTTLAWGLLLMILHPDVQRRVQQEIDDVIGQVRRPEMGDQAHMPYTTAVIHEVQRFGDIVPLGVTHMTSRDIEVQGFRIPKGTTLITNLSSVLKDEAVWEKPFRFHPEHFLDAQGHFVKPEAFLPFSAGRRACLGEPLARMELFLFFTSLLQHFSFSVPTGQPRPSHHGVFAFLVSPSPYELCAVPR

[26] = target: Cytochrome P450 3A4 (Homo sapiens, UniProt P08684);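 also: CYP3A4 tested as one member of a cytochrome P450 panel screen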
Sequence of Cytochrome P450 3A4 (P08684 whole entry): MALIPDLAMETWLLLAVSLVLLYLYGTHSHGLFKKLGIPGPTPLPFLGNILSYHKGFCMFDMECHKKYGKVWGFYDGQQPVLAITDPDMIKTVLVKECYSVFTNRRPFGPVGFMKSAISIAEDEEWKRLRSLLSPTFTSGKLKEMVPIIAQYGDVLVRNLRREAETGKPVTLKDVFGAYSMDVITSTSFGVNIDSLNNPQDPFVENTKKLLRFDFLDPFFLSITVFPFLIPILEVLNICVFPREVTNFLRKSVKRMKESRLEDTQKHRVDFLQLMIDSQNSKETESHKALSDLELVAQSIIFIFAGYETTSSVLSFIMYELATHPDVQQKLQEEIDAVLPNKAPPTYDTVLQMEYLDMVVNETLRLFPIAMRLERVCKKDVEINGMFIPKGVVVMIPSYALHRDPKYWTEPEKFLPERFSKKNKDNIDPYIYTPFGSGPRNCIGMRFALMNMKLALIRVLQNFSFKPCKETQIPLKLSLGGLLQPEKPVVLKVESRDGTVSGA

[27] = target: T4, Heat shock factor protein 1 (Mus musculus, UniProt P38532); test: HSF1 potentiators in luciferase reporter cells, confirmation, cell-based, NIH3T3, luminescence, dose retest (AID 435004); format: functional;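 also: stress induced by proteasome inhibitor MG132 added 30 min after compound; luciferase reporter driven by HSF1 response element in NIH3T3 cells; actives raise luminescence as potentiators of the MG132 stress response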
T4 sequence (P38532 whole entry): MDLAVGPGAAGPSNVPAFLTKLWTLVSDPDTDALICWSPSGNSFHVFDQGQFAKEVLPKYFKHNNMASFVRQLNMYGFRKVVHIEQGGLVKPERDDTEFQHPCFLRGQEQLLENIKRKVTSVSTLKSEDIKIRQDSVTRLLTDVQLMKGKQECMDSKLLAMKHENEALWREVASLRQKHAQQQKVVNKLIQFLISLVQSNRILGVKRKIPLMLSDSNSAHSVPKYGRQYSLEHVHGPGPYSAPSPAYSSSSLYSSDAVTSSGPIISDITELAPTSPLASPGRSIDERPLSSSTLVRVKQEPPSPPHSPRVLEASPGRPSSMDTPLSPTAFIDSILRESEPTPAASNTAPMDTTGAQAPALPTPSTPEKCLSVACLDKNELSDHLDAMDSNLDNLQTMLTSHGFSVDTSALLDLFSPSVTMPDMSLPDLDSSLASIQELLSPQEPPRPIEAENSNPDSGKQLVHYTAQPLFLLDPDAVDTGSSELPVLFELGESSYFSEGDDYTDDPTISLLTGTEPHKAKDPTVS

Question: With `Fc1ccc(C2Nc3cccc4cccc(c34)N2)cc1` as the compound, how does the AC50 [1] read?
Answer: Its AC50 is 16.4 µM (active).

Question: Which results are given for `CC1(CO)C(O)CCC2(C)C1C(O)CC1CC3CC12CCC3(O)CO` (stereo not drawn)?
Answer: GI50 [2]: 187 µM (inactive); GI50 [3]: 209 µM (inactive); GI50 [4]: 11.2 µM (inactive)

Question: For `Cc1ccc(S(=O)(=O)Nc2ccc3c(c2)CC(=O)N([C@@H](C)CO)C[C@H](C)[C@H](CN(C)Cc2ccc(C(=O)Nc4ccccc4N)cc2)O3)cc1`, which AC50 [5] is on record?
Answer: The AC50 was 2.31 µM (active).

Question: Which results are given for `CC[C@@]1(O)C(=O)OCc2c1cc1n(c2=O)Cc2cc3cc(O)ccc3nc2-1` [HYDROXYCAMPTOTHECIN]?
Answer: GI50 [2]: 0.0304 µM (active); GI50 [3]: 0.01 µM (active); GI50 [4]: 0.0203 µM (active)

Question: For `Cc1nnc(N/N=C/c2ccccn2)nc1O`, which EC50 [6] is on record?
Answer: Its EC50 is 4.26 µM (active).

Question: And the EC50 [7]?
Answer: The EC50 was 1.69 µM (active).

Question: And the EC50 [8]?
Answer: The EC50 was 7.24 µM (active).

Question: And the EC50 [9]?
Answer: The EC50 was 4.02 µM (active).

Question: What about the EC50 [10] of the same compound?
Answer: The EC50 was 2.72 µM (active).

Question: And the EC50 [11]?
Answer: The EC50 was > 350 µM (not active).

Question: What about the EC50 [12] of the same compound?
Answer: Its EC50 is 5.42 µM (active).

Question: What about the EC50 [13] of the same compound?
Answer: Its EC50 is 5.38 µM (inconclusive).

Question: And the IC50 [14]?
Answer: The IC50 was > 80 µM (inactive).

Question: What about the IC50 [15] of the same compound?
Answer: The IC50 was 3.92 µM (active).

Question: What about the AC50 [16] of the same compound?
Answer: Its AC50 is 1.56 µM (active).

Question: For `N=C(N)/N=N/c1c(O)[nH]c2ccc(Br)cc12`, which AC50 [1] is on record?
Answer: The AC50 was 5.14 µM (active).

Question: With `O=C1C=C2SC3C[C@@]24CC1(O)[N+]1=c2c4c(c(O)c4c2=C(C=N4)CC1)N3` as the compound, how does the GI50 [2] read?
Answer: The GI50 was 1.3 µM (inactive).

Question: What about the GI50 [3] of the same compound?
Answer: Its GI50 is 1.29 µM (inactive).

Question: And the GI50 [4]?
Answer: Its GI50 is 0.869 µM (active).

Question: Which GI50 [2] does the source give for `CC1=CC2=C(C=O)C(=O)[C@](C)(O)[C@@H](O)C2=CO1` here?
Answer: Its GI50 is 14.5 µM (inactive).

Question: What about the GI50 [3] of the same compound?
Answer: Its GI50 is 30.4 µM (inactive).

Question: And the GI50 [4]?
Answer: Its GI50 is 15 µM (inactive).

Question: With `COc1cc(C2C(=O)c3ccccc3C2=O)ccc1O` as the compound, how does the AC50 [1] read?
Answer: Its AC50 is 3.44 µM (active).

Question: What about the IC50 [17] of the same compound?
Answer: The IC50 was 16.1 µM (active).

Question: With `COc1ccc(CNC(=O)CC2C[C@H](C(=O)N3CCOCC3)[C@@]3(CCC4CCCC4)c4[nH]c5ccccc5c4CCN3C2=O)cc1OC` (stereo partly drawn) as the compound, how does the IC50 [18] read?
Answer: The IC50 was 3.67 µM (active).

Question: And the IC50 [19]?
Answer: The IC50 was 4.73 µM (active).

Question: Which CC50 [20] does the source give for `COc1ccc(OC)c(/C=C2\SC(=S)N(Cc3cccnc3)C2=O)c1` here?
Answer: The CC50 was 14.8 µM (active).

Question: Which results are given for `COCCCn1c(N)c(C(=O)Nc2ccccc2)c2nc3ccccc3nc21`?
Answer: EC50 [21]: 16.9 µM (active); EC50 [22]: > 150 µM (not active); EC50 [23]: 32.8 µM (active); CC50 [20]: > 25 µM (active)

Question: What does the source list for `CCOCC(=O)N(C)c1cccc2c3c(n(C)c12)CCCCC3`?
Answer: GI50 [2]: > 100 µM (inactive); GI50 [3]: > 100 µM (inactive); GI50 [4]: > 100 µM (inactive)

Question: For `O=C1SC(c2ccccc2)=C/C1=C\N1CCCCC1`, which EC50 [24] is on record?
Answer: Its EC50 is > 50 µM (active).

Question: And the AC50 [1]?
Answer: Its AC50 is 2.83 µM (active).

Question: What about the IC50 [17] of the same compound?
Answer: Its IC50 is 45.9 µM (active).

Question: What about the AC50 [25] of the same compound?
Answer: The AC50 was 25.1 µM (inconclusive).

Question: And the AC50 [26]?
Answer: Its AC50 is 25.1 µM (inconclusive).

Question: Which GI50 [2] does the source give for `COC1CC(C)C(OC)c2cc(O)cc(c2O)NC(=O)/C(C)=C/C=C\C(C)C(OC(N)=O)/C(C)=C\C(C)C1OC` (stereo not drawn) here?
Answer: Its GI50 is 1.55 µM (inactive).

Question: What about the GI50 [4] of the same compound?
Answer: The GI50 was 0.0693 µM (active).

Question: With `Cc1noc(NS(=O)(=O)c2ccc(NC(=O)c3oc4ccc(F)cc4c3C)cc2)c1C` as the compound, how does the EC50 [27] read?
Answer: Its EC50 is > 260 µM (inactive).

Question: And the AC50 [1]?
Answer: The AC50 was 9.87 µM (active).

Question: For `C[C@@H]1CN([C@@H](C)CO)C(=O)Cc2cc(NC(=O)Nc3ccc(F)cc3)ccc2O[C@@H]1CN(C)Cc1ccc(Cl)c(Cl)c1`, which AC50 [5] is on record?
Answer: The AC50 was 3.42 µM (active).

Question: For `COc1ccc(S(=O)(=O)Nc2ccc3c(c2)CC(=O)N([C@H](C)CO)C[C@@H](C)[C@@H](CN(C)S(=O)(=O)c2ccc(F)cc2)O3)cc1`, which AC50 [5] is on record?
Answer: Its AC50 is 2.24 µM (active).

Question: With `CCOC(=O)C1=C(c2ccccc2)NC(=O)NC1c1ccc(O)c(Cl)c1` (stereo not drawn) as the compound, how does the EC50 [8] read?
Answer: The EC50 was > 350 µM (not active).

Question: And the EC50 [11]?
Answer: The EC50 was > 350 µM (not active).

Question: What about the CC50 [20] of the same compound?
Answer: The CC50 was 22.5 µM (active).

Question: For `C[C@H](CO)N1C[C@H](C)[C@@H](CN(C)S(=O)(=O)c2ccc(Cl)cc2)Oc2c(NC(=O)c3nc4ccccc4s3)cccc2C1=O`, which AC50 [5] is on record?
Answer: Its AC50 is 1.73 µM (active).
